Test system: cell-free RNA (cfRNA)
Assay: Total cfRNA in plasma after whole blood storage (Qubit RNA HS fluorometric analysis)
Conditions: preservative added singly on ACD-A background, 7 days at room temperature, FIG. 6
Description: Plasma was isolated and cfRNA extracted using a commercially available kit (Qiagen, QIAamp Circulating Nucleic Acid Isolation Kit). Resultant cfRNA was quantified using the Qubit RNA HS Assay (Invitrogen). Results are the mean with standard deviation from 3 healthy donors.
The working hypothesis for the container (e.g., blood collection tube) that comprises a composition of the disclosure was that cell-free RNA (cfRNA), including messenger RNA, micro-RNA, non-coding RNA, etc., is stable in blood plasma via encapsulation within extracellular vesicles (EVs). Thus, because aspects of the disclosure are directed to stabilizing draw-time concentrations of cfRNA, the goal was to maintain the initial concentration of EVs. […] In the experiments, the functional components of the RNAx BCT are the preservatives imidazolidinyl urea (IDU) and α-cyclodextrin. The experiments were designed to test whether each of the foregoing components acted singly (additive effect) or whether the combination provided an unexpected, more pronounced outcome (synergistic effect).
On the background of the basal anti-coagulant, ACD-A, each of the preservatives (i.e., IDU and α-cyclodextrin) was added singly (at the same concentration utilized in the RNAx BCT) or together. […]

`OC[C@H]1O[C@@H]2O[C@H]3[C@H](O)[C@@H](O)[C@@H](O[C@H]4[C@H](O)[C@@H](O)[C@@H](O[C@H]5[C@H](O)[C@@H](O)[C@@H](O[C@H]6[C@H](O)[C@@H](O)[C@@H](O[C@H]7[C@H](O)[C@@H](O)[C@@H](O[C@H]1[C@H](O)[C@H]2O)O[C@@H]7CO)O[C@@H]6CO)O[C@@H]5CO)O[C@@H]4CO)O[C@@H]3CO` [α-cyclodextrin] was tested, and the “effect on increases in total cfRNA levels (in words)” value was “did limit increases in levels of cfRNA”.

Reference: patent US12378543B2, “Compositions for hemolysis and coagulation regulation and stabilization of extracellular vesicles” (STRECK LLC, priority 2017, dated 2025)
